According to patent publication US12448388B2, “PRMT5 inhibitors and uses thereof” (Gilead Sciences, Inc., priority 2023, dated 2025):
Like-named read-outs stand apart in the source and are kept apart here.

Test system: HCT116 MTAP-deleted cell lines
Assay: Cell viability assay (CellTiter-Glo, 7 days), HCT116 MTAP-deleted
Format: cell-based
Settings: Homo sapiens, HCT-116, HCT116 MTAP-deleted, class symbols, read-out: CC50
Outline: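 Dose-response, PRMT5 inhibitors from DMSO serial dilution, pre-spotted; cells seeded onto compound plates. 7 d, 37 °C/5% CO2/90% RH. Readout: CTG luminescence → CC50.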

Compound	CC50 (cell viability assay)	CC50 (cell viability)
Cc1ncc2c(N)nc3cnc(C(=O)N4C(C)CCC5Oc6cc(C(F)(F)F)ccc6C54)cc3n12 (racemic) [Ff-586, Rac-(4-amino-1-methylimidazo[1,5-a]pyrido[3,4-e]pyrazin-8-yl)(2-methyl-7-(trifluoromethyl)-3,4,4a,9b-tetrahydrobenzofuro[3,2-b]pyridin-1(2H)-yl)methanone]	< 100 nM	–
Nc1nc2cc(F)c(C(=O)N3CCC[C@@H]4Oc5cc(C(F)(F)F)ccc5[C@@H]43)cc2n2cnc(F)c12 [Ff-621, (4-amino-3,7-difluoroimidazo[1,5-a]quinoxalin-8-yl)((4aS,9bS)-7-(trifluoromethyl)-3,4,4a,9b-tetrahydrobenzofuro[3,2-b]pyridin-1(2H)-yl)methanone]	100 to 1000 nM	–
CN(C(=O)c1ccc2nc(N)c3cncn3c2c1)C1CCc2nc(C(F)(F)F)ccc21 (stereo not shown) [Ff-266, 4-amino-N-methyl-N-(2-(trifluoromethyl)-6,7-dihydro-5H-cyclopenta[b]pyridin-5-yl)imidazo[1,5-a]quinoxaline-8-carboxamide]	–	100 to 1000 nM
CN(Cc1ccc(F)cc1Cl)C(=O)c1ccc2nc(N)c3cncn3c2c1 [Ff-30, 4-amino-N-(2-chloro-4-fluorobenzyl)-N-methylimidazo[1,5-a]quinoxaline-8-carboxamide]	–	> 1000 nM
Nc1nc2ccc(C(=O)N3CCC[C@@H]4Cc5cc(C(F)(F)F)ccc5[C@@H]43)cc2n2cncc12 (racemic) [Ff-249, Rac-(4-aminoimidazo[1,5-a]quinoxalin-8-yl)((4aR,9bR)-7-(trifluoromethyl)-2,3,4,4a,5,9b-hexahydro-1H-indeno[1,2-b]pyridin-1-yl)methanone]	–	100 to 1000 nM
Cn1cc(N(Cc2ccc(C(F)(F)F)cc2F)C(=O)c2cc3c(cc2F)nc(N)c2cncn23)c(Cl)n1 [Ff-421, 4-amino-N-(3-chloro-1-methyl-pyrazol-4-yl)-7-fluoro-N-[[2-fluoro-4-(trifluoromethyl)phenyl]methyl]imidazo[1,5-a]quinoxaline-8-carboxamide]	< 100 nM	–
Nc1nc2cc(F)c(C(=O)N3CC[C@H]4C[C@@H]3c3ccc(Cl)cc34)cc2n2cncc12 [Ff-603, (4-amino-7-fluoroimidazo[1,5-a]quinoxalin-8-yl)((1R,5S)-7-chloro-1,3,4,5-tetrahydro-2H-1,5-methanobenzo[c]azepin-2-yl)methanone]	100 to 1000 nM	–
CCN(C(=O)c1cc2c(cc1F)nc(N)c1cncn12)[C@@H](C)c1ccc(C(F)(F)F)cn1 [Ff-543, (S)-4-amino-N-ethyl-7-fluoro-N-(1-(5-(trifluoromethyl)pyridin-2-yl)ethyl)imidazo[1,5-a]quinoxaline-8-carboxamide]	< 100 nM	–
Cc1ncn2c1c(N)nc1cnc(C(=O)N3CC[C@H]4C[C@@H]3c3cc(F)c(C(F)(F)F)cc3O4)cc12 [Ff-635, (4-amino-3-methylimidazo[1,5-a]pyrido[3,4-e]pyrazin-8-yl)((2S,6R)-8-fluoro-9-(trifluoromethyl)-3,4-dihydro-2H-2,6-methanobenzo[b][1,5]oxazocin-5(6H)-yl)methanone]	< 100 nM	–
C[C@@H]1OC[C@H](N(C)C(=O)c2ccc3nc(N)c4cncn4c3c2)c2ccc(C(F)(F)F)cc21 (single isomer, unassigned) [Ff-470]	< 100 nM	–
Nc1nc2cc(F)c(C(=O)N3CCOC[C@@H]3c3ccc(OC(F)(F)F)cc3)cc2n2cncc12 (single isomer, unassigned) [Ff-555]	< 100 nM	–
C[C@H]1CN(C(=O)c2cc3c(cn2)nc(N)c2cncn23)[C@H]2c3ccc(OC(F)(F)F)cc3C[C@H]2O1 (single isomer, unassigned) [Ff-186]	–	< 100 nM
Cc1nn(C)c(C)c1N(Cc1ccc(C(F)(F)F)cc1F)C(=O)c1cc2c(cc1F)nc(N)c1cncn12 [Ff-417, 4-amino-7-fluoro-N-[[2-fluoro-4-(trifluoromethyl)phenyl]methyl]-N-(1,3,5-trimethylpyrazol-4-yl)imidazo[1,5-a]quinoxaline-8-carboxamide]	< 100 nM	–
CN(C(=O)c1cc2c(cc1F)nc(N)c1cncn12)[C@@H]1COc2c(Br)cccc21 [Ff-455, (S)-4-amino-N-(7-bromo-2,3-dihydrobenzofuran-3-yl)-7-fluoro-N-methylimidazo[1,5-a]quinoxaline-8-carboxamide]	100 to 1000 nM	–
Nc1nc2ccc(C(=O)N3CCC[C@@H]4Oc5cc(OC(F)(F)F)c(F)cc5[C@@H]43)cc2n2cncc12 [Ff-377, (4-aminoimidazo[1,5-a]quinoxalin-8-yl)((4aS,9bS)-8-fluoro-7-(trifluoromethoxy)-3,4,4a,9b-tetrahydrobenzofuro[3,2-b]pyridin-1(2H)-yl)methanone]	< 100 nM	–
CC1(N(Cc2ccc(C(F)(F)F)cn2)C(=O)c2cc3c(cc2F)nc(N)c2cncn23)CC1 [Ff-468, 4-amino-7-fluoro-N-(1-methylcyclopropyl)-N-((5-(trifluoromethyl)pyridin-2-yl)methyl)imidazo[1,5-a]quinoxaline-8-carboxamide]	< 100 nM	–

Compound	CC50 (cell viability assay)	CC50 (cell viability)
CN(C(=O)c1cc2c(cc1F)nc(N)c1cncn12)[C@@H]1COc2cc(C(F)(F)F)cc(F)c21 (single isomer, unassigned) [Ff-601]	< 100 nM	–
CN(C(=O)c1cc2c(cn1)nc(N)c1cncn12)[C@H]1c2ccc(C(F)(F)F)cc2[C@@H]2C[C@@H]21 [Ff-254, 4-amino-N-methyl-N-((1aR,6R,6aS)-3-(trifluoromethyl)-1,1a,6,6a-tetrahydrocyclopropa[a]inden-6-yl)imidazo[1,5-a]pyrido[3,4-e]pyrazine-8-carboxamide]	–	100 to 1000 nM
CN(C(=O)c1cc2c(cc1F)nc(N)c1cncn12)[C@@H]1COc2cc(C#CC3(F)COC3)ccc21 [Ff-440, 4-amino-7-fluoro-N-[(3S)-6-[2-(3-fluorooxetan-3-yl)ethynyl]-2,3-dihydrobenzofuran-3-yl]-N-methyl-imidazo[1,5-a]quinoxaline-8-carboxamide]	< 100 nM	–
Nc1nc2cc(F)c(C(=O)N3C[C@H](F)CCC3c3ccc(C(F)(F)F)cn3)cc2n2cncc12 (mixture of isomers) [Ff-228, (4-amino-7-fluoroimidazo[1,5-a]quinoxalin-8-yl)((5R)-5-fluoro-2-(5-(trifluoromethyl)pyridin-2-yl)piperidin-1-yl)methanone]	–	< 100 nM
Nc1nc2cc(F)c(C(=O)N(Cc3ccc(C(F)(F)F)cc3F)C34COC(C3)C4)cc2n2cncc12 [Ff-272, 4-amino-N-(2-oxabicyclo[2.1.1]hexan-4-yl)-7-fluoro-N-(2-fluoro-4-(trifluoromethyl)benzyl)imidazo[1,5-a]quinoxaline-8-carboxamide]	–	< 100 nM
Cc1ncc2c(N)nc3cnc(C(=O)N(C)[C@@H]4COc5cc(C67CC(C6)C7)ccc54)cc3n12 [Ff-466, (S)-4-amino-N-(6-(bicyclo[1.1.1]pentan-1-yl)-2,3-dihydrobenzofuran-3-yl)-N,1-dimethylimidazo[1,5-a]pyrido[3,4-e]pyrazine-8-carboxamide]	< 100 nM	–
C[C@@H]1C[C@@H]2Oc3cc(OC(F)(F)F)ccc3[C@@H]2N(C(=O)c2cc3c(cc2F)nc(N)c2cncn23)C1 [Ff-500, (4-amino-7-fluoroimidazo[1,5-a]quinoxalin-8-yl)((3R,4aS,9bS)-3-methyl-7-(trifluoromethoxy)-3,4,4a,9b-tetrahydrobenzofuro[3,2-b]pyridin-1(2H)-yl)methanone]	< 100 nM	–
CN(C(=O)c1cc2c(cc1F)nc(N)c1cncn12)[C@H]1COCc2nc(C(F)(F)F)ccc21 [Ff-282, (R)-4-amino-7-fluoro-N-methyl-N-(2-(trifluoromethyl)-5,8-dihydro-6H-pyrano[3,4-b]pyridin-5-yl)imidazo[1,5-a]quinoxaline-8-carboxamide]	–	100 to 1000 nM
CN(C(=O)c1cc2c(cc1F)nc(N)c1cncn12)C1CCc2nc(Cl)sc21 (stereo not shown) [Ff-16, 4-amino-N-(2-chloro-5,6-dihydro-4H-cyclopenta[d]thiazol-6-yl)-7-fluoro-N-methylimidazo[1,5-a]quinoxaline-8-carboxamide]	–	100 to 1000 nM
C[C@H]1CN(C(=O)c2cc3c(cc2F)nc(N)c2cnc(Br)n23)[C@H]2c3ccc(C(F)(F)F)cc3C[C@H]2O1 (single isomer, unassigned) [Ff-496]	100 to 1000 nM	–
C[C@H]1CN(C(=O)c2cc3c(cc2F)nc(N)c2cncn23)[C@H]2c3ccc(C(F)(F)F)c(F)c3C[C@H]2O1 [Ff-690, (4-amino-7-fluoroimidazo[1,5-a]quinoxalin-8-yl)((2S,4aS,9aR)-8-fluoro-2-methyl-7-(trifluoromethyl)-2,3,9,9a-tetrahydroindeno[2,1-b][1,4]oxazin-4(4aH)-yl)methanone]	< 100 nM	–
Nc1nc2cnc(C(=O)N3CCO[C@@H]4Cc5cc(OC(F)(F)F)c(F)cc5[C@@H]43)cc2n2cncc12 [Ff-178, (4-aminoimidazo[1,5-a]pyrido[3,4-e]pyrazin-8-yl)((4aS,9aR)-6-fluoro-7-(trifluoromethoxy)-2,3,9,9a-tetrahydroindeno[2,1-b][1,4]oxazin-4(4aH)-yl)methanone]	–	< 100 nM
C[C@H]1CN(C(=O)c2cc3c(cc2F)nc(N)c2cncn23)[C@H]2c3cc(F)c(C(F)(F)F)cc3C[C@H]2O1 (single isomer, unassigned) [Ff-329]	–	< 100 nM
CCN(C(=O)c1cc2c(cn1)nc(N)c1cncn12)[C@@H]1COc2cc(C(F)(F)F)ccc21 [Ff-604, (S)-4-amino-N-ethyl-N-(6-(trifluoromethyl)-2,3-dihydrobenzofuran-3-yl)imidazo[1,5-a]pyrido[3,4-e]pyrazine-8-carboxamide]	< 100 nM	–
C[C@H](c1ncccn1)N(Cc1ccc(C(F)(F)F)cc1F)C(=O)c1cc2c(cc1F)nc(N)c1cncn12 [Ff-416, 4-amino-7-fluoro-N-[[2-fluoro-4-(trifluoromethyl)phenyl]methyl]-N-[(1R)-1-pyrimidin-2-ylethyl]imidazo[1,5-a]quinoxaline-8-carboxamide]	< 100 nM	–
